The test system of the experiment is P388 leukemia ip, CD2F1 mice, survival T/C. Put plainly: NCI In Vivo Anticancer Drug Screen. Data for tumor model P388 Leukemia (intraperitoneal) in CD2F1 (CDF1) mice. Particulars: endpoint: median survival time, higher = longer survival. The procedure, abridged: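 Mice carrying the transplanted tumor received test compound or vehicle. Survival was recorded in each group, and the value is the treated-group measurement divided by that of the vehicle-treated control group.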

[1] abbreviates: dose: 25.0 mg/kg/injection, schedule: Q01DX009 (ip), vehicle: saline with Tween-80.
Where [2] appears, read: dose: 50.0 mg/kg/injection, schedule: Q01DX009 (ip), vehicle: saline with Tween-80.
The mark [3] stands for this setting: dose: 100.0 mg/kg/injection, schedule: Q01DX009 (ip), vehicle: saline with Tween-80.
[4] abbreviates: dose: 200.0 mg/kg/injection, schedule: Q01DX009 (ip), vehicle: saline with Tween-80.
[5] abbreviates: dose: 50.0 mg/kg/injection, schedule: Q01DX005 (ip), vehicle: saline with Tween-80.
[6] abbreviates: dose: 100.0 mg/kg/injection, schedule: Q01DX005 (ip), vehicle: saline with Tween-80.
[7] abbreviates: dose: 200.0 mg/kg/injection, schedule: Q01DX005 (ip), vehicle: saline with Tween-80.
[8] abbreviates: dose: 50.0 mg/kg/injection, schedule: Q01DX005 (ip), vehicle: Klucel (hydroxypropylcellulose) (HPC).
Setting [9] is: dose: 100.0 mg/kg/injection, schedule: Q01DX005 (ip), vehicle: Klucel (hydroxypropylcellulose) (HPC).
[10] abbreviates: dose: 200.0 mg/kg/injection, schedule: Q01DX005 (ip), vehicle: Klucel (hydroxypropylcellulose) (HPC).
The mark [11] stands for this setting: dose: 50.0 mg/kg/injection, schedule: Q01DX009 (ip), vehicle: suspension in saline.
Setting [12] is: dose: 100.0 mg/kg/injection, schedule: Q01DX009 (ip), vehicle: suspension in saline.
Setting [13] is: dose: 200.0 mg/kg/injection, schedule: Q01DX009 (ip), vehicle: suspension in saline.
Setting [14] is: dose: 100.0 mg/kg/injection, schedule: Q04DX002 (ip), vehicle: Klucel (hydroxypropylcellulose) (HPC).
Setting [15] is: dose: 200.0 mg/kg/injection, schedule: Q04DX002 (ip), vehicle: Klucel (hydroxypropylcellulose) (HPC).
The mark [16] stands for this setting: dose: 400.0 mg/kg/injection, schedule: Q04DX002 (ip), vehicle: Klucel (hydroxypropylcellulose) (HPC).

These results are taken from PubChem BioAssay AID330 (DTP/NCI, 2004).

Toxic doses and inconclusive results are not listed.

Turning to `CCOC(=O)CC(=O)OC(C)(C)C`, the T/C by setting is: under setting [1], 97 % of control; under setting [2], 106 % of control; under setting [3], 104 % of control; under setting [4], 100 % of control.
For `C/C=C1/CC2C=Nc3cc(O)c(OC)cc3C(=O)N2C1` (stereo not given), the T/C by setting is: (dose: 1.0 mg/kg/injection, schedule: Q01DX005 (ip), vehicle: saline + alcohol) 157 % of control; (dose: 50.0 micrograms/kg/injection, schedule: Q01DX005 (ip), vehicle: saline + alcohol) 98 % of control; (dose: 100.0 micrograms/kg/injection, schedule: Q01DX005 (ip), vehicle: saline + alcohol) 110 % of control; (dose: 200.0 micrograms/kg/injection, schedule: Q01DX005 (ip), vehicle: saline + alcohol) 116 % of control; (dose: 400.0 micrograms/kg/injection, schedule: Q01DX005 (ip), vehicle: saline + alcohol) 120 % of control.
With `O=C(Nc1ccc(S(=O)(=O)Nc2nccs2)cc1)c1ccncc1`, the T/C reads like this: under setting [5], 102 % of control; under setting [6], 102 % of control; under setting [7], 102 % of control.
On to `Cc1cccc(C)c1NC(=O)CCC(=O)O`, for which the T/C under setting [8] is 104 % of control, the T/C under setting [9] was 102 % of control and the T/C under setting [10] is 103 % of control.
For the molecule `CCOC(=O)Nc1nc2ccccc2n1CN1CCCC1`, the T/C is, setting by setting: (dose: 25.0 mg/kg/injection, schedule: Q01DX005 (ip), vehicle: Klucel (hydroxypropylcellulose) (HPC)) 112 % of control; under setting [8], 111 % of control; under setting [9], 114 % of control; under setting [10], 117 % of control.
`Cc1ccc(N2C(=O)CSC2=S)cc1Br`: the T/C under setting [11] is 93 % of control, the T/C under setting [12] is 105 % of control and the T/C under setting [13] is 93 % of control.
Regarding `COC1=C(C)[C@@H]2CC(=O)O[C@@H]3C[C@H]4CCCC[C@]4(C)[C@@H](C1=O)[C@@]32C`, the T/C runs as follows: under setting [8], 95 % of control; under setting [9], 92 % of control; under setting [10], 93 % of control.
Turning to `COP(=O)(O)/C(=N/NS(=O)(=O)c1ccc(C)cc1)c1ccccc1`, the T/C runs as follows: (dose: 12.5 mg/kg/injection, schedule: Q01DX009 (ip), vehicle: water) 96 % of control; (dose: 25.0 mg/kg/injection, schedule: Q01DX009 (ip), vehicle: water) 96 % of control; (dose: 50.0 mg/kg/injection, schedule: Q01DX009 (ip), vehicle: water) 93 % of control; (dose: 100.0 mg/kg/injection, schedule: Q01DX009 (ip), vehicle: water) 98 % of control; (dose: 200.0 mg/kg/injection, schedule: Q01DX009 (ip), vehicle: water) 98 % of control; (dose: 400.0 mg/kg/injection, schedule: Q01DX009 (ip), vehicle: water) 97 % of control.
Take `O=c1[nH]cc(O)c(=O)[nH]1`: the T/C by setting is: (dose: 167.0 mg/kg/injection, schedule: Q01DX009 (ip), vehicle: saline with Tween-80) 95 % of control; (dose: 267.0 mg/kg/injection, schedule: Q01DX009 (ip), vehicle: saline with Tween-80) 113 % of control; (dose: 400.0 mg/kg/injection, schedule: Q01DX009 (ip), vehicle: saline with Tween-80) 104 % of control; (dose: 600.0 mg/kg/injection, schedule: Q01DX009 (ip), vehicle: saline with Tween-80) 109 % of control.
In the case of `S=c1oc2cccc3c2n1CCC3`, the T/C (dose: 100.0 mg/kg/injection, schedule: Q04DX003 (ip), vehicle: saline with Tween-80) was 95 % of control; the T/C (dose: 200.0 mg/kg/injection, schedule: Q04DX003 (ip), vehicle: saline with Tween-80) is 104 % of control; the T/C (dose: 400.0 mg/kg/injection, schedule: Q04DX003 (ip), vehicle: saline with Tween-80) is 100 % of control.
As to `Cn1c2cc(F)ccc2c(=O)c2c(O)cc3c(c21)C=CC(C)(C)O3`, the T/C runs as follows: under setting [8], 94 % of control; under setting [9], 92 % of control; under setting [10], 94 % of control.
In the case of `COC(=O)C[N+](C)(C)Cc1ccccc1`, the T/C reads like this: (dose: 50.0 mg/kg/injection, schedule: Q01DX009 (ip), vehicle: DMSO) 97 % of control; (dose: 100.0 mg/kg/injection, schedule: Q01DX009 (ip), vehicle: DMSO) 99 % of control.
For `O=C1C=C(NC(=O)C(F)(F)F)C(=O)c2c1[nH]c(=O)[nH]c2=O`, the T/C is, setting by setting: (dose: 6.25 mg/kg/injection, schedule: Q01DX005 (ip), vehicle: DMSO) 109 % of control; (dose: 12.5 mg/kg/injection, schedule: Q01DX005 (ip), vehicle: DMSO) 103 % of control; (dose: 25.0 mg/kg/injection, schedule: Q01DX005 (ip), vehicle: DMSO) 103 % of control; (dose: 50.0 mg/kg/injection, schedule: Q01DX005 (ip), vehicle: DMSO) 110 % of control; (dose: 50.0 mg/kg/injection, schedule: Q01DX005 (ip), vehicle: other) 98 % of control; (dose: 100.0 mg/kg/injection, schedule: Q01DX005 (ip), vehicle: other) 104 % of control. Also, the T/C (dose: 200.0 mg/kg/injection, schedule: Q01DX005 (ip), vehicle: other) was 101 % of control.
On to `CC1CC[N-]CC1.CC1CC[N-]CC1.CC1CC[N-]CC1.CC1CC[N-]CC1.[Cl][Rh][Cl]`, for which the T/C by setting is: under setting [1], 104 % of control; under setting [2], 104 % of control.
Turning to `CCOC(=O)c1c[nH]c2cc(Cl)ccc2c1=O`, the T/C by setting is: under setting [2], 93 % of control; under setting [3], 98 % of control; under setting [4], 93 % of control.
`O=C1NC(=O)C2=C1CCC2Br` (stereo not given): the T/C reads like this: (dose: 3.13 mg/kg/injection, schedule: Q01DX009 (ip), vehicle: distilled water + Tween-80) 101 % of control; (dose: 6.25 mg/kg/injection, schedule: Q01DX009 (ip), vehicle: distilled water + Tween-80) 102 % of control.
In the case of `Clc1ccc(-c2nc(-c3cc4cc(Cl)ccc4o3)cs2)cc1`, the T/C is, setting by setting: (dose: 50.0 mg/kg/injection, schedule: Q01DX009 (ip), vehicle: Klucel (hydroxypropylcellulose) (HPC)) 100 % of control; (dose: 100.0 mg/kg/injection, schedule: Q01DX009 (ip), vehicle: Klucel (hydroxypropylcellulose) (HPC)) 100 % of control; (dose: 200.0 mg/kg/injection, schedule: Q01DX009 (ip), vehicle: Klucel (hydroxypropylcellulose) (HPC)) 104 % of control.
As to `C=CC(=O)Oc1ccccc1/C=C/C(=O)CCCCCC`, the T/C under setting [5] is 98 % of control, the T/C under setting [6] was 107 % of control and the T/C under setting [7] is 105 % of control.
For `Cc1cc(C)c2c(=O)n(C)c(=O)n(C)c2n1`, the T/C by setting is: under setting [2], 89 % of control; under setting [3], 94 % of control; under setting [4], 103 % of control.
As for `COc1ccc(CSC(=S)Nc2ccc(Cl)c(C)c2)cc1`, the T/C runs as follows: under setting [11], 111 % of control; under setting [12], 109 % of control; under setting [13], 106 % of control.
Consider `COc1ccc(NS(=O)(=O)c2ccc(N=Cc3c4ccccc4nc4ccccc34)cc2)nn1`, for which the T/C (dose: 12.5 mg/kg/injection, schedule: Q04DX002 (ip), vehicle: Klucel (hydroxypropylcellulose) (HPC)) is 96 % of control; the T/C (dose: 25.0 mg/kg/injection, schedule: Q04DX002 (ip), vehicle: Klucel (hydroxypropylcellulose) (HPC)) is 96 % of control; the T/C (dose: 50.0 mg/kg/injection, schedule: Q04DX002 (ip), vehicle: Klucel (hydroxypropylcellulose) (HPC)) was 89 % of control; the T/C under setting [14] was 96 % of control; the T/C under setting [15] was 89 % of control; the T/C under setting [16] was 89 % of control.
As for `COC(=O)c1ccc(C(=O)OC)c2nc3cc(C)c(C)cc3nc12`, the T/C reads like this: (dose: 60.0 mg/kg/injection, schedule: Q01DX005 (ip), vehicle: Klucel (hydroxypropylcellulose) (HPC)) 96 % of control; (dose: 120.0 mg/kg/injection, schedule: Q01DX005 (ip), vehicle: Klucel (hydroxypropylcellulose) (HPC)) 98 % of control.
As to `CCOC(=O)C(Nc1cc([N+](=O)[O-])ccc1C(=O)OC(C)C)(OC(C)C)C(=O)OCC`, the T/C is 90 % of control under setting [14], 91 % of control under setting [15] and 90 % of control under setting [16].
